ChEMBL document CHEMBL4507304, “Data for DCP probe TP-021” (2021)

Experiments:
[1] = target: Beta-1 adrenergic receptor (Homo sapiens) (UniProt P08588); conditions: Compound concentration 10.0 uM
[2] = target: Serine/threonine-protein kinase PLK1 (Homo sapiens) (UniProt P53350); conditions: Compound concentration 1000.0 nM
[3] = target: 5'-AMP-activated protein kinase catalytic subunit alpha-2 (Homo sapiens) (UniProt P54646); conditions: Compound concentration 1000.0 nM
[4] = target: MAP kinase-interacting serine/threonine-protein kinase 2 (Homo sapiens) (UniProt Q9HBH9); conditions: Compound concentration 1000.0 nM
[5] = target: Calcium/calmodulin-dependent protein kinase type II subunit delta (Homo sapiens) (UniProt Q13557); conditions: Compound concentration 1000.0 nM
[6] = target: Ribosomal protein S6 kinase beta-1 (Homo sapiens) (UniProt P23443); conditions: Compound concentration 1000.0 nM
[7] = target: Serine/threonine-protein kinase ICK (Homo sapiens) (UniProt Q9UPZ9); conditions: Compound concentration 1000.0 nM
[8] = target: Serine/threonine-protein kinase D3 (Homo sapiens) (UniProt O94806); conditions: Compound concentration 1000.0 nM
[9] = system: Epidermal growth factor receptor (Homo sapiens), P00533 [L858R]; conditions: Compound concentration 1000.0 nM
[10] = target: High affinity nerve growth factor receptor (Homo sapiens) (UniProt P04629); conditions: Compound concentration 1000.0 nM
[11] = target: Protein kinase C epsilon type (Homo sapiens) (UniProt Q02156); conditions: Compound concentration 1000.0 nM
[12] = target: Tyrosine-protein kinase HCK (Homo sapiens) (UniProt P08631); conditions: Compound concentration 1000.0 nM
[13] = target: Serine/threonine-protein kinase MRCK alpha (Homo sapiens) (UniProt Q5VT25); conditions: Compound concentration 1000.0 nM
[14] = target: Casein kinase I isoform alpha (Homo sapiens) (UniProt P48729); conditions: Compound concentration 1000.0 nM
[15] = target: Tyrosine-protein kinase Fer (Homo sapiens) (UniProt P16591); conditions: Compound concentration 1000.0 nM
[16] = target: Tyrosine-protein kinase TXK (Homo sapiens) (UniProt P42681); conditions: Compound concentration 1000.0 nM
[17] = target: Dual specificity mitogen-activated protein kinase kinase 1 (Homo sapiens) (UniProt Q02750); conditions: Compound concentration 1000.0 nM
[18] = target: Calcium/calmodulin-dependent protein kinase type II subunit gamma (Homo sapiens) (UniProt Q13555); conditions: Compound concentration 1000.0 nM
[19] = target: Fibroblast growth factor receptor 1 (Homo sapiens) (UniProt P11362); conditions: Compound concentration 1000.0 nM
[20] = target: Serine/threonine-protein kinase TAO3 (Homo sapiens) (UniProt Q9H2K8); conditions: Compound concentration 1000.0 nM
[21] = target: Cyclin-dependent kinase 8 (Homo sapiens) (UniProt P49336); conditions: Compound concentration 1000.0 nM
[22] = target: Serine/threonine-protein kinase RIO3 (Homo sapiens) (UniProt O14730); conditions: Compound concentration 1000.0 nM
[23] = target: Phosphatidylinositol 4,5-bisphosphate 3-kinase catalytic subunit beta isoform (Homo sapiens) (UniProt P42338); conditions: Compound concentration 1000.0 nM
Chain of Phosphatidylinositol 4,5-bisphosphate 3-kinase catalytic subunit beta isoform (Homo sapiens) (P42338 whole entry, looked up, canonical isoform): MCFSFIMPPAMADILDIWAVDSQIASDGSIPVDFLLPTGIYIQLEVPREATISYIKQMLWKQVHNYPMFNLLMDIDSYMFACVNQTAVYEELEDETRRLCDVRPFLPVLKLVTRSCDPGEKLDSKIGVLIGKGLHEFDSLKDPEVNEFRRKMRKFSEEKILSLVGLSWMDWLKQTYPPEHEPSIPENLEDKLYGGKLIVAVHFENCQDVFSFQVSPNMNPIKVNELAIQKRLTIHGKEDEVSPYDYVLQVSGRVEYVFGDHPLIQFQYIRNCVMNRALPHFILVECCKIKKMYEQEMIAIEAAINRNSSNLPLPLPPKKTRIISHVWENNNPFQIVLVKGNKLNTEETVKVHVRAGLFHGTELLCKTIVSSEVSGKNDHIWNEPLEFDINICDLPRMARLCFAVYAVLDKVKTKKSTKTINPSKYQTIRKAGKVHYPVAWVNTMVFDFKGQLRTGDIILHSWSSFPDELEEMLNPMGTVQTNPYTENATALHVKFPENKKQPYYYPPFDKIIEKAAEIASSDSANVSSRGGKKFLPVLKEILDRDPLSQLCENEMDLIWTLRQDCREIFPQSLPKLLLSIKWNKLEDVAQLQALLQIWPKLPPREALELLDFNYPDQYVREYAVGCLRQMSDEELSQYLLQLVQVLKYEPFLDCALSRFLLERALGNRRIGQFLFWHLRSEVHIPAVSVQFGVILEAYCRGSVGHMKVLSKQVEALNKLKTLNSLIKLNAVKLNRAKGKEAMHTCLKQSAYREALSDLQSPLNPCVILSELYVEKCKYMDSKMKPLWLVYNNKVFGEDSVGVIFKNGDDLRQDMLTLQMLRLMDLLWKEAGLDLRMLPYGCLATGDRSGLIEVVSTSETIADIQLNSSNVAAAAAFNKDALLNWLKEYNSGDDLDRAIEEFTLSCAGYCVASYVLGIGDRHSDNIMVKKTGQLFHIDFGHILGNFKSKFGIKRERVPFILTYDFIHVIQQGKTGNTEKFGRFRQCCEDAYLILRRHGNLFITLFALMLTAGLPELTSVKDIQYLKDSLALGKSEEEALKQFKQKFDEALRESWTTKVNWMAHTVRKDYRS

[24] = target: Homeodomain-interacting protein kinase 4 (Homo sapiens) (UniProt Q8NE63); conditions: Compound concentration 1000.0 nM
[25] = target: Homeodomain-interacting protein kinase 2 (Homo sapiens) (UniProt Q9H2X6); conditions: Compound concentration 1000.0 nM
[26] = system: Tyrosine-protein kinase ABL1 (Homo sapiens), P00519 [E255K]; conditions: Compound concentration 1000.0 nM
[27] = target: Mitogen-activated protein kinase 10 (Homo sapiens) (UniProt P53779); conditions: Compound concentration 1000.0 nM
[28] = target: Serine/threonine-protein kinase pim-2 (Homo sapiens) (UniProt Q9P1W9); conditions: Compound concentration 1000.0 nM
Chain of Serine/threonine-protein kinase pim-2 (Homo sapiens) (Q9P1W9 whole entry, looked up): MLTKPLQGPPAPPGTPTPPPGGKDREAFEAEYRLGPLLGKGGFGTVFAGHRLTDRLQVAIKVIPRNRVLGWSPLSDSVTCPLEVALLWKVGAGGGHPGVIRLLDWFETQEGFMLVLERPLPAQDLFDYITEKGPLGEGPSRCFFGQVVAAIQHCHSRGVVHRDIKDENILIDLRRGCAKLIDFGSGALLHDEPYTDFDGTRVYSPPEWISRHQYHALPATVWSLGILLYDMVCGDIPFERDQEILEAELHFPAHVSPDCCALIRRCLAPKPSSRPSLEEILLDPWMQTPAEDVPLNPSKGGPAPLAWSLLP

[29] = target: RAF proto-oncogene serine/threonine-protein kinase (Homo sapiens) (UniProt P04049); conditions: Compound concentration 1000.0 nM
Chain of RAF proto-oncogene serine/threonine-protein kinase (Homo sapiens) (P04049 whole entry): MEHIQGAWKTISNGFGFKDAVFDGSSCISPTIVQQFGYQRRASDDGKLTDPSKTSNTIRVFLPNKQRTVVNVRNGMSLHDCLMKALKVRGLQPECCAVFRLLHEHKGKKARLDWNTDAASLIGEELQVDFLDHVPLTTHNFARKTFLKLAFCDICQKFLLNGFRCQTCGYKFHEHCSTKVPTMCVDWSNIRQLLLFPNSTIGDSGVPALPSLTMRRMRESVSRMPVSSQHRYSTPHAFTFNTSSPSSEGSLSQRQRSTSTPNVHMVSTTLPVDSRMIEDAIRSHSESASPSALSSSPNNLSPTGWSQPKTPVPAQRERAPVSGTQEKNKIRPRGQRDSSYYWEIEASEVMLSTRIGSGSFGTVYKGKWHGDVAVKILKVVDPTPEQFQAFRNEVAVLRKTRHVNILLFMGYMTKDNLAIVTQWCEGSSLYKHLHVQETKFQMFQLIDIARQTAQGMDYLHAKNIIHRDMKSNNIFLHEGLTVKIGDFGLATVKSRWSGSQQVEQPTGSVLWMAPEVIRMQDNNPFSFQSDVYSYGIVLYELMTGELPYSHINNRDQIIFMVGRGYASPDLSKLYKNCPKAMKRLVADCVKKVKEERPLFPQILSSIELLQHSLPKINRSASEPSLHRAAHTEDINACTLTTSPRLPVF

[30] = target: Tyrosine-protein kinase Mer (Homo sapiens) (UniProt Q12866); conditions: Compound concentration 1000.0 nM
[31] = target: Myotonin-protein kinase (Homo sapiens) (UniProt Q09013); conditions: Compound concentration 1000.0 nM
[32] = target: Serine/threonine-protein kinase 10 (Homo sapiens) (UniProt O94804); conditions: Compound concentration 1000.0 nM
[33] = target: 5-hydroxytryptamine receptor 5A (Homo sapiens) (UniProt P47898); conditions: Compound concentration 10.0 uM
[34] = target: Activin receptor type-1B (Homo sapiens) (UniProt P36896); conditions: Compound concentration 1000.0 nM
Chain of Activin receptor type-1B (Homo sapiens) (P36896 whole entry): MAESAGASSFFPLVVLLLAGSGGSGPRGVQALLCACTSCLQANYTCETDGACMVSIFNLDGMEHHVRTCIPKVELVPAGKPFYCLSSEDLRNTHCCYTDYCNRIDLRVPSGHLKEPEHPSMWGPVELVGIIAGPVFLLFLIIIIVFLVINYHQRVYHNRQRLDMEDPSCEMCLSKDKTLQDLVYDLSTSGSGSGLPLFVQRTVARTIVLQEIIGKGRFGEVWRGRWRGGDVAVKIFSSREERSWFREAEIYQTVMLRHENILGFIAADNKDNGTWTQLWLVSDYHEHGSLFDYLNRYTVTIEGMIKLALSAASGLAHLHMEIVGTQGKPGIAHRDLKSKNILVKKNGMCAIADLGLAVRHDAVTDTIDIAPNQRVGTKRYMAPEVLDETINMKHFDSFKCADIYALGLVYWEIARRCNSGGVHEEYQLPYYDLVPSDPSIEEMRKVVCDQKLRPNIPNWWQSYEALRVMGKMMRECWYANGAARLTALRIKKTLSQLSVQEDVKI

[35] = target: Muscarinic acetylcholine receptor M2 (Homo sapiens) (UniProt P08172); conditions: Compound concentration 10.0 uM
[36] = target: Ribosomal protein S6 kinase alpha-6 (Homo sapiens) (UniProt Q9UK32); conditions: Compound concentration 1000.0 nM
Chain of Ribosomal protein S6 kinase alpha-6 (Homo sapiens) (Q9UK32 whole entry): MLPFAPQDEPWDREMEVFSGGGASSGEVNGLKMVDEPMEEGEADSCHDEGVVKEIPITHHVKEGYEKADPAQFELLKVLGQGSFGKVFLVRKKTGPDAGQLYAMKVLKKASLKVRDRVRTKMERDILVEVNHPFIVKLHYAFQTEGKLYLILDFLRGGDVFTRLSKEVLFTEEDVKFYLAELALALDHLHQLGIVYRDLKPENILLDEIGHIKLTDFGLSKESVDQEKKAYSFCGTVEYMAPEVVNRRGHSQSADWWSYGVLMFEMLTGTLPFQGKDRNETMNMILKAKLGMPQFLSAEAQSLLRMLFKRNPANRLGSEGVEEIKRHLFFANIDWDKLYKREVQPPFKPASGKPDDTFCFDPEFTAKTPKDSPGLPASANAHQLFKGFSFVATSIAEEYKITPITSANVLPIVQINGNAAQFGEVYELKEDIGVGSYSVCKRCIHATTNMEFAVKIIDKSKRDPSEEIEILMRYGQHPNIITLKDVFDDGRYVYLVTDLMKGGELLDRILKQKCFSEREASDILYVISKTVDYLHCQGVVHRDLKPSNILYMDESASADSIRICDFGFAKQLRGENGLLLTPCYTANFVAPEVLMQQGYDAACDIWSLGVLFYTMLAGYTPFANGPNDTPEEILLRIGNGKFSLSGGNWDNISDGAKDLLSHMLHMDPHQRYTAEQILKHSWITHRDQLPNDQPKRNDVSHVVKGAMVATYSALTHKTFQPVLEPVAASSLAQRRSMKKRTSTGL

[37] = target: Mitogen-activated protein kinase 14 (Homo sapiens) (UniProt Q16539); conditions: Compound concentration 1000.0 nM
[38] = target: Phosphatidylinositol 4-kinase beta (Homo sapiens) (UniProt Q9UBF8); conditions: Compound concentration 1000.0 nM
[39] = target: Non-receptor tyrosine-protein kinase TNK1 (Homo sapiens) (UniProt Q13470); conditions: Compound concentration 1000.0 nM
[40] = target: Cyclin-dependent kinase-like 3 (Homo sapiens) (UniProt Q8IVW4); conditions: Compound concentration 1000.0 nM
Chain of Cyclin-dependent kinase-like 3 (Homo sapiens) (Q8IVW4 whole entry, looked up): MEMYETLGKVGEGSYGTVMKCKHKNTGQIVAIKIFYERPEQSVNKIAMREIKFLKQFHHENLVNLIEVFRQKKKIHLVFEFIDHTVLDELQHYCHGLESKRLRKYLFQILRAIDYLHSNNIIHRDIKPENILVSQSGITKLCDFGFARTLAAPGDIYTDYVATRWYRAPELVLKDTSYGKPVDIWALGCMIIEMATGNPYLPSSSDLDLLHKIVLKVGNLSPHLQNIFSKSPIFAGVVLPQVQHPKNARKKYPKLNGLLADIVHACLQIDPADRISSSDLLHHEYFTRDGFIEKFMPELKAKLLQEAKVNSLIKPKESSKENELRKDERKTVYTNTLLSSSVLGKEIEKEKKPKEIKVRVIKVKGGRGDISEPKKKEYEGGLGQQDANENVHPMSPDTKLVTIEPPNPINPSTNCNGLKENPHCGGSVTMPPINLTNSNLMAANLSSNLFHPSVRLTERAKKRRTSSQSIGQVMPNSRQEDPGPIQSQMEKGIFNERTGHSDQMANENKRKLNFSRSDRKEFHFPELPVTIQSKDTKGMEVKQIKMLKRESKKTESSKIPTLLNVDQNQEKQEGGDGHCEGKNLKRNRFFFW

[41] = target: Ribosomal protein S6 kinase alpha-6 (Homo sapiens) (UniProt Q9UK32); conditions: Compound concentration 1000.0 nM; remark: listed apart in the source
[42] = target: cAMP-dependent protein kinase catalytic subunit PRKX (Homo sapiens) (UniProt P51817); conditions: Compound concentration 1000.0 nM
[43] = target: Cyclin-dependent kinase 15 (Homo sapiens) (UniProt Q96Q40); conditions: Compound concentration 1000.0 nM
[44] = target: Phosphatidylinositol 4-phosphate 5-kinase type-1 alpha (Homo sapiens) (UniProt Q99755); conditions: Compound concentration 1000.0 nM
Chain of Phosphatidylinositol 4-phosphate 5-kinase type-1 alpha (Homo sapiens) (Q99755 whole entry): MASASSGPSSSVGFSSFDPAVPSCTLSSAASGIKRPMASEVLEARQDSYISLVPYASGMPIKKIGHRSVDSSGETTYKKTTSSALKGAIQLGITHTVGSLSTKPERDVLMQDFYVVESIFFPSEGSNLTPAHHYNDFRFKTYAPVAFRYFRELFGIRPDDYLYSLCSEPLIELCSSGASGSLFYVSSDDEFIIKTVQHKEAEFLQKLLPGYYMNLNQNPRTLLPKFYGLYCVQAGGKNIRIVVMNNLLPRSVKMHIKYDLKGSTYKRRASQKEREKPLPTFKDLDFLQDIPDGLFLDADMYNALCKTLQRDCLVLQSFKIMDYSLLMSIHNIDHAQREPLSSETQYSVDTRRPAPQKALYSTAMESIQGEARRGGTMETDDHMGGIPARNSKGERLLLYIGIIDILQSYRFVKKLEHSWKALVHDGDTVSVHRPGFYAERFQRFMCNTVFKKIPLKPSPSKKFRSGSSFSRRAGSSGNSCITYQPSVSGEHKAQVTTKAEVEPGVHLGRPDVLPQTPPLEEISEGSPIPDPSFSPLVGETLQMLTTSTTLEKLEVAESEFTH

[45] = target: Serine/threonine-protein kinase DCLK3 (Homo sapiens) (UniProt Q9C098); conditions: Compound concentration 1000.0 nM

Chain of Serine/threonine-protein kinase PLK1 (Homo sapiens) (P53350 whole entry): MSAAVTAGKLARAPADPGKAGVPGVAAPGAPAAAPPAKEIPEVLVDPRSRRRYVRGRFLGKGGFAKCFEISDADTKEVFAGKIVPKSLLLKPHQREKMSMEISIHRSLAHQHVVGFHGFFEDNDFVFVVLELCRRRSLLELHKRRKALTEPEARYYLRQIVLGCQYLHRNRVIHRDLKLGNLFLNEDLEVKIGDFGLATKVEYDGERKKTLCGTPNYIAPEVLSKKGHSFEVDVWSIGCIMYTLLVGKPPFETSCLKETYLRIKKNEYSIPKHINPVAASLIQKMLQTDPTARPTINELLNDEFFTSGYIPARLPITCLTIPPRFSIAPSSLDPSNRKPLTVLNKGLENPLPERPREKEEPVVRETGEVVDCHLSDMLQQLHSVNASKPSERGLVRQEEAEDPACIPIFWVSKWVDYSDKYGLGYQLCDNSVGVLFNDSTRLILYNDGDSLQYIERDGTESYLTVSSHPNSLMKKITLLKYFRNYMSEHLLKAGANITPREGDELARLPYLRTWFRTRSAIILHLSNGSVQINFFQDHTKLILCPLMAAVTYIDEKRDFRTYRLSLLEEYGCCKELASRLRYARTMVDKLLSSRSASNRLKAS

N#Cc1ccc(Nc2ccc3[nH]c(=O)[nH]c3c2)c(Cl)c1
inactive: inhibition [1] 4.98% | residual activity [2] 100% | residual activity [3] 81% | residual activity [4] 100% | residual activity [5] 100% | residual activity [6] 100% | residual activity [7] 97% | residual activity [8] 100% | residual activity [9] 100% | residual activity [10] 93% | residual activity [11] 100% | residual activity [12] 100% | residual activity [13] 100% | residual activity [14] 100% | residual activity [15] 100% | residual activity [16] 87% | residual activity [17] 88% | residual activity [18] 78% | residual activity [19] 100% | residual activity [20] 100% | residual activity [21] 100% | residual activity [22] 100% | residual activity [23] 100% | residual activity [24] 100% | residual activity [25] 100% | residual activity [26] 92% | residual activity [27] 100% | residual activity [28] 83% | residual activity [29] 68% | residual activity [30] 100% | residual activity [31] 81% | residual activity [32] 100% | inhibition [33] -7.6% | residual activity [34] 100% | inhibition [35] 3.51% | residual activity [36] 100% | residual activity [37] 93% | residual activity [38] 100% | residual activity [39] 56% | residual activity [40] 80% | residual activity [41] 84% | residual activity [42] 100% | residual activity [43] 94% | residual activity [44] 100% | residual activity [45] 88%

O=C1CCc2cc(Nc3cc(OC4CCOCC4)c([N+](=O)[O-])cc3Cl)ccc2N1
inactive: inhibition [1] 3.3% | residual activity [2] 100% | residual activity [3] 100% | residual activity [4] 98% | residual activity [5] 100% | residual activity [6] 100% | residual activity [7] 100% | residual activity [8] 92% | residual activity [9] 100% | residual activity [10] 94% | residual activity [11] 93% | residual activity [12] 100% | residual activity [13] 91% | residual activity [14] 100% | residual activity [15] 100% | residual activity [16] 79% | residual activity [17] 72% | residual activity [18] 100% | residual activity [19] 93% | residual activity [20] 81% | residual activity [21] 100% | residual activity [22] 100% | residual activity [23] 97% | residual activity [24] 98% | residual activity [25] 100% | residual activity [26] 88% | residual activity [27] 98% | residual activity [28] 84% | residual activity [29] 98% | residual activity [30] 100% | residual activity [31] 96% | residual activity [32] 100% | inhibition [33] 6.14% | residual activity [34] 93% | inhibition [35] 5.41% | residual activity [36] 91% | residual activity [37] 100% | residual activity [38] 100% | residual activity [39] 87% | residual activity [40] 79% | residual activity [41] 77% | residual activity [42] 100% | residual activity [43] 73% | residual activity [44] 100% | residual activity [45] 91%
